This passage reports GI50 results from patent publication US9828393B2, “Silylalkyloxyaryl compounds and methods for treating cancer” (THE REGENTS OF THE UNIVERSITY OF COLORADO, a body corporate, priority 2013, dated 2017).

Read-outs that look alike come from different tables or passages of the source.

For one assay, the system named is Leukemia cell lines. In words: NCI-60 cell line screen, Leukemia panel average. It counts as cell-based, human. To be noted: Homo sapiens, read-out: GI50 Average. The protocol:
(§1) Drug sensitivity data are provided as GI50s (concentrations required to inhibit growth by 50%). The first row of the text file identifies cell lines, separated by tabs. Subsequent rows contain compound number, compound name, and GI50 for each cell line, each separated by a tab. […] For a typical screening experiment, cells are inoculated into 96 well microtiter plates in 100 μL at plating densities ranging from 5,000 to 40,000 cells/well depending on the doubling time of individual cell lines. After cell inoculation, the microtiter plates are incubated at 37° C., 5% CO2, 95% air and 100% relative humidity for 24 h prior to addition of experimental drugs. After 24 h, two plates of each cell line are fixed in situ with TCA, to represent a measurement of the cell population for each cell line at the time of drug addition (Tz). Experimental drugs are solubilized in dimethyl sulfoxide at 400-fold the desired final maximum test concentration and stored frozen prior to use. At the time of drug addition, an aliquot of frozen concentrate is thawed and diluted to twice the desired final maximum test concentration with complete medium containing 50 μg/ml gentamicin. Additional four, 10-fold or one-half log serial dilutions are made to provide a total of five drug concentrations plus control. Aliquots of 100 μl of these different drug dilutions are added to the appropriate microtiter wells already containing 100 μl of medium, resulting in the required final drug concentrations. Following drug addition, the plates are incubated for an additional 48 h at 37° C., 5% CO2, 95% air, and 100% relative humidity. For adherent cells, the assay is terminated by the addition of cold TCA. Cells are fixed in situ by the gentle addition of 50 μl of cold 50% (w/v) TCA (final concentration, 10% TCA) and incubated for 60 minutes at 4° C. The supernatant is discarded, and the plates are washed five times with tap water and air dried. Sulforhodamine B (SRB) solution (100 μl) at 0.4% (w/v) in 1% acetic acid is added to each well, and plates are incubated for 10 minutes at room temperature. After staining, unbound dye is removed by washing five times with 1% acetic acid and the plates are air dried. Bound stain is subsequently solubilized with 10 mM trizma base, and the absorbance is read on an automated plate reader at a wavelength of 515 nm. For suspension cells, the methodology is the same except that the assay is terminated by fixing settled cells at the bottom of the wells by gently adding 50 μl of 80% TCA (final concentration, 16% TCA). Using the seven absorbance measurements [time zero, (Tz), control growth, (C), and test growth in the presence of drug at the five concentration levels (Ti)], the percentage growth is calculated at each of the drug concentrations levels. […]

The subject of another assay is HCC-2998. In words: NCI-60 cell line screen (SRB), HCC-2998. It counts as cell-based, human. Particulars: Homo sapiens. As for the experimental part:
as §1

The test system of the next assay is A-498. In words: NCI-60 cell line screen (SRB), A-498. To be noted: Homo sapiens. It counts as cell-based, human. The protocol: as §1
For the next assay, the system named is SNB-75. In words: NCI-60 cell line screen (SRB), SNB-75. It counts as cell-based. Particulars: Homo sapiens. The protocol:
as §1, with “temperature.” for “temperature. After staining, unbound dye is removed by washing five times with 1% acetic acid and the plates are air dried. Bound stain is subsequently solubilized with 10 mM trizma base, and the absorbance is read on an automated plate reader at a wavelength of 515 nm. For suspension cells, the methodology is the same except that the assay is terminated by fixing settled cells at the bottom of the wells by gently adding 50 μl of 80% TCA (final concentration, 16% TCA). Using the seven absorbance measurements [time zero, (Tz), control growth, (C), and test growth in the presence of drug at the five concentration levels (Ti)], the percentage growth is calculated at each of the drug concentrations levels.”

In the next assay the test system is OVCAR-3. Nature of the assay: NCI-60 cell line screen (SRB), OVCAR-3. Format: cell-based, human. To be noted: Homo sapiens. As for the experimental part:
as §1

A further assay deals with MOLT-4. Nature of the assay: NCI-60 cell line screen (SRB), MOLT-4. Particulars: Homo sapiens. It counts as cell-based, human. As for the experimental part: as §1
A further assay deals with CCRF-CEM. Nature of the assay: NCI-60 cell line screen (SRB), CCRF-CEM. Format: cell-based, human. Particulars: Homo sapiens. The protocol:
as §1

The next assay has as its system SF-539. In words: NCI-60 cell line screen (SRB), SF-539. Format: cell-based, human. Particulars: Homo sapiens. As for the experimental part: as §1
Another assay relates to PC-3. In words: NCI-60 cell line screen (SRB), PC-3. It counts as cell-based, human. To be noted: Homo sapiens. As for the experimental part:
as §1

A further assay has as its system SK-MEL-5. In words: NCI-60 cell line screen (SRB), SK-MEL-5. It counts as cell-based, human. To be noted: Homo sapiens. As for the experimental part:
as §1

A further assay deals with NCI-H226. In words: NCI-60 cell line screen (SRB), NCI-H226. Format: cell-based, human. To be noted: Homo sapiens. As for the experimental part:
as §1

A further assay relates to RXF 393. In words: NCI-60 cell line screen (SRB), RXF 393. It counts as cell-based, human. To be noted: Homo sapiens. As for the experimental part: as §1
In a further assay the test system is HCT-116. Nature of the assay: NCI-60 cell line screen (SRB), HCT-116. It counts as cell-based, human. Particulars: Homo sapiens. As for the experimental part:
as §1

The next assay concerns RPMI-8226. In words: NCI-60 cell line screen (SRB), RPMI-8226. It counts as cell-based, human. Particulars: Homo sapiens. As for the experimental part:
as §1

Another assay concerns 786-0. Nature of the assay: NCI-60 cell line screen (SRB), 786-0. Format: cell-based, human. To be noted: Homo sapiens. As for the experimental part:
as §1

The test system of a further assay is T-47D. In words: NCI-60 cell line screen (SRB), T-47D. To be noted: Homo sapiens, T47D. It counts as cell-based, human. As for the experimental part:
as §1

The next assay concerns OVCAR-4. In words: NCI-60 cell line screen (SRB), OVCAR-4. Format: cell-based, human. To be noted: Homo sapiens. As for the experimental part: as §1
The next assay relates to SK-MEL-2. Nature of the assay: NCI-60 cell line screen (SRB), SK-MEL-2. It counts as cell-based, human. Particulars: Homo sapiens. The protocol: as §1
The test system of a further assay is Renal Cancer cell lines. Nature of the assay: NCI-60 cell line screen, Renal Cancer panel average. It counts as cell-based, human. Particulars: Homo sapiens, read-out: GI50 Average. The protocol:
as §1

The test system of another assay is MDA-MB-468. In words: NCI-60 cell line screen (SRB), MDA-MB-468. It counts as cell-based, human. To be noted: Homo sapiens. As for the experimental part:
as §1

In another assay the test system is Melanoma cell lines. In words: NCI-60 cell line screen, Melanoma panel average. Format: cell-based, human. Particulars: Homo sapiens, read-out: GI50 Average. The protocol: as §1
For assay [1], the system named is Non-Small Cell Lung Cancer cell lines. In words: NCI-60 cell line screen, Non-Small Cell Lung Cancer panel average. Particulars: Homo sapiens, read-out: GI50 Average. Format: cell-based, human. The protocol:
as §1

In a further assay the test system is HS 578T. Nature of the assay: NCI-60 cell line screen (SRB), HS 578T. Format: cell-based, human. Particulars: Homo sapiens. The protocol:
as §1

Another assay concerns SK-MEL-28. Nature of the assay: NCI-60 cell line screen (SRB), SK-MEL-28. Format: cell-based, human. Particulars: Homo sapiens. The protocol: as §1

By GI50 is commonly meant the concentration at which growth is held to half of that of the control.

On to `CCCC[Si](C)(C)COc1ccc(C(=O)N[C@@H](Cc2ccc(OCc3c(Cl)cccc3Cl)cc2)C(=O)NC2CC(C)(C)NC(C)(C)C2)cc1` [GH1503, N^α-{4-[(butyldimethylsilyl)methoxy]-benzoyl}-N-(2,2,6,6-tetramethylpiperidin-4-yl)-[O-(2,6-dichlorobenzyl)-L-tyrosinamide]], for which the GI50 in the assay on Leukemia cell lines (average over Leukemia panel) was determined as 572 nM; in the assay with HCC-2998 (Colon Cancer, HCC-2998, 48 h drug incubation, read-out: GI50), 1070 nM; with A-498 (A498, Renal Cancer, A-498, 48 h drug incubation, read-out: GI50) it was 1950 nM; with SNB-75 (CNS Cancer, SNB-75, 48 h drug incubation, read-out: GI50), 1350 nM; with OVCAR-3 (Ovarian Cancer, OVCAR-3, 48 h drug incubation, read-out: GI50), 761 nM; in the assay with MOLT-4 (Leukemia, MOLT-4, 48 h drug incubation, read-out: GI50), 315 nM. Further, the concentration for 50% growth inhibition (GI50) in the assay with CCRF-CEM (Leukemia, 48 h drug incubation, read-out: GI50) was determined as 531 nM; in the assay on SF-539 (CNS Cancer, SF-539, 48 h drug incubation, read-out: GI50), 1730 nM; with PC-3 (Prostate Cancer, PC-3, 48 h drug incubation, read-out: GI50), 490 nM; in the assay with SK-MEL-5 (Melanoma, SK-MEL-5, 48 h drug incubation, read-out: GI50), 1680 nM; in the assay on NCI-H226 (Non-Small Cell Lung Cancer, NCI-H226, 48 h drug incubation, read-out: GI50), 1340 nM; with RXF 393 (Renal Cancer, RXF 393, 48 h drug incubation, read-out: GI50), 392 nM. Also, the GI50 was determined as 319 nM in the assay with HCT-116 (Colon Cancer, HCT-116, 48 h drug incubation, read-out: GI50); 893 nM in the assay on RPMI-8226 (Leukemia, RPMI-8226, 48 h drug incubation, read-out: GI50); 468 nM with 786-0 (Renal Cancer, 786-0, 48 h drug incubation, read-out: GI50); 1840 nM in the assay on T-47D (Breast Cancer, T-47D, 48 h drug incubation, read-out: GI50); 711 nM in the assay on OVCAR-4 (Ovarian Cancer, OVCAR-4, 48 h drug incubation, read-out: GI50); 1560 nM in the assay with SK-MEL-2 (Melanoma, SK-MEL-2, 48 h drug incubation, read-out: GI50). Also, the concentration for 50% growth inhibition (GI50) in the assay with Renal Cancer cell lines (average over Renal Cancer panel) is 1050 nM; in the assay on MDA-MB-468 (Breast Cancer, MDA-MB-468, 48 h drug incubation, read-out: GI50), 1540 nM; in the assay on Melanoma cell lines (average over Melanoma panel), 1130 nM; in [1] (average over Non-Small Cell Lung Cancer panel), 1210 nM; in the assay on HS 578T (Breast Cancer, HS 578T, 48 h drug incubation, read-out: GI50), 2010 nM; in the assay with SK-MEL-28 (Melanoma, SK-MEL-28, 48 h drug incubation, read-out: GI50), 1580 nM.

`CCCC[Si](C)(C)COc1ccc(C(=O)N[C@@H](Cc2ccc(-c3ccccc3)cc2)C(=O)NC2CC(C)(C)NC(C)(C)C2)cc1` [GH1504, N^α-{4-[(butyldimethylsilyl)methoxy]-benzoyl}-N-(2,2,6,6-tetramethylpiperidin-4-yl)-(4-phenyl-L-phenylalaninamide)]: the 50% growth inhibitory concentration (GI50) in the assay on Leukemia cell lines was 1170 nM; with HCC-2998 (HCC 2998, 48 h), 1110 nM; in the assay on A-498 (A498, 48 h), 1950 nM; in the assay on SNB-75 (SNB-75, 48 h) it was 1630 nM; with OVCAR-3 (OVCAR-3, 48 h), 202 nM; in the assay on MOLT-4 (MOLT-4, 48 h), 775 nM. Moreover, the GI50 with CCRF-CEM (48 h) is 1500 nM; with SF-539 (SF-539, 48 h) it was 1770 nM; in the assay with PC-3 (PC-3, 48 h), 1300 nM; with SK-MEL-5 (SK-MEL-5, 48 h) it was 234 nM; with NCI-H226 (NCI-H226, 48 h) it was 183 nM; with RXF 393 (RXF 393, 48 h) it was 179 nM. In addition, the GI50 in the assay on HCT-116 (HCT-116, 48 h) came to 218 nM; in the assay on RPMI-8226 (RPMI-8226, 48 h) it was 1950 nM; with 786-0 (786-0, 48 h), 780 nM; in the assay with T-47D (48 h), 1820 nM; in the assay with OVCAR-4 (OVCAR-4, 48 h) it was 521 nM; with SK-MEL-2 (SK-MEL-2, 48 h), 944 nM. The GI50 with Renal Cancer cell lines came to 1010 nM; with MDA-MB-468 (MDA-MB-468, 48 h), 198 nM; in the assay with Melanoma cell lines, 886 nM; in [1] it was 1020 nM; with HS 578T (Hs-578T, 48 h), 1850 nM; with SK-MEL-28 (SK-MEL-28, 48 h), 1330 nM.
